Reference: article PMC5514153, “Targeting PTPRZ inhibits stem cell-like properties and tumorigenicity in glioblastoma cells” (Scientific Reports, 2017)

Experiments:
[1] = system: PTPRZ and PTPRG V-to-F substitution mutants; test: Sensitivity of V-to-F mutants to competitive inhibitors; format: biochemical, human; conditions: SCB4380 10 µM, vanadate 200 µM; on average
Procedure: For determination of IC50 values, Lineweaver-Burk plot, and inhibitor sensitivity assays, recombinant PTP proteins were preincubated with a dilution series of the compound in assay buffer (100 mM acetate, 50 mM Tris, and 50 mM Bis-Tris, pH 6.5 containing 100 μg/ml BSA, 5 mM DTT, and 0.01% Brij-35) for 1 h, and the enzyme-inhibitor mixture was added to an equal volume of 40 μM DiFMUP (6,8-difluoro-4-methylumbiliferyl phosphate, #D6567, Thermo Fisher Scientific) solution to initiate the reaction. The hydrolysis of DiFMUP was continuously monitored as an increase in fluorescence at 455 nm (excitation at 358 nm) for ~100 s using a spectrofluorometer (FI-4500, Hitachi) at room temperature. The slope of the fluorescence signal was defined as catalytic activity. IC50 values were calculated by the conventional linear interpolation method. We examined preincubation effect, reversibility, and time dependence of PTP inhibition by NAZ2329 as described in the figure legends.
Le ge nds to Supple me ntary Figure s
Supplementary Figure S1. Aberrant expressions of core transcription factors in Ptprz-knockdown glioblastoma cells. (A) Western using antibodies against SOX2, OLIG2, POU3F2, and SALL2. […] SALL2 proteins were not detected in C6 or U251 cells. […]
positions corresponding to Val-1911 of PTPRZ1 are colored in blue and red, respectively. […] Data were analyzed as […]

[2] = not told; cited from earlier work
[3] = molecular target: T1, human PTPRZ1 (whole intracellular region, D1+D2) (Homo sapiens, UniProt P23471); test: In vitro PTPase assay (DiFMUP), PTPRZ1 whole intracellular region; format: biochemical
T1 construct: Recombinant proteins corresponding to the entire intracellular regions (ICRs) of PTPRZ1, PTPRA, and PTPRM; made in house; host or cells: baculovirus-silkworm expression system
T1 sequence (P23471 1663-2315 limits assumed): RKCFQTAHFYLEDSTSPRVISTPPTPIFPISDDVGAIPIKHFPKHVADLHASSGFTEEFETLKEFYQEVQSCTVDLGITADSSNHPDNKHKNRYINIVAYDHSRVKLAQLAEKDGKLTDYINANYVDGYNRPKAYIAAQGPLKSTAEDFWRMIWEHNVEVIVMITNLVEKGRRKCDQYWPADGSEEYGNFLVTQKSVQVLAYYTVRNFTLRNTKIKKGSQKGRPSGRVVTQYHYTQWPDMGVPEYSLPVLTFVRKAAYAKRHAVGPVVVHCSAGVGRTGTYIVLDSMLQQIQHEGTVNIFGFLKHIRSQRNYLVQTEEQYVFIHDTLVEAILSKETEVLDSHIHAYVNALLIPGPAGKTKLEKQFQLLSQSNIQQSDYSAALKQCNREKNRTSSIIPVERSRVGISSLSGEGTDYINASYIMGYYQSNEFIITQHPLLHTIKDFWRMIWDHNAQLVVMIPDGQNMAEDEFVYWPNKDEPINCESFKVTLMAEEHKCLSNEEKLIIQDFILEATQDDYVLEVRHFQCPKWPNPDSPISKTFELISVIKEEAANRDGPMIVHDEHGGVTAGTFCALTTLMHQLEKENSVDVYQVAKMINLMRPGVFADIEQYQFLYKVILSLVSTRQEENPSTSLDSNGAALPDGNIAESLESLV
Procedure: Figure 4 NAZ2329, an allosteric inhibitor of R5 RPTP subfamily members. (A) Structure of NAZ2329. (B) Effect of preincubation of NAZ2329 on its inhibitory activity against PTPRZ. Recombinant human PTPRZ1 enzyme (the whole intracellular region) was premixed with NAZ2329 for the indicated times and followed by addition of a fluorogenic DiFMUP (non-specific PTP substrate, 6,8-difluoro-4-methylumbiliferyl phosphate) to measure PTP inhibitory activity. (C) Time dependence. The PTPRZ1 enzyme was added to the inhibitor–substrate mixture, and the inhibitory activity was determined at each time point relative to the vehicle control. (D) Reversibility of inhibition. PTPRZ1 enzymes were preincubated with NAZ2329 at the indicated concentrations for 30 min. The mixture was then 20-fold diluted, and recovered PTP activity was expressed as the relative activity compared with the vehicle-treated enzyme. (E) Lineweaver-Burk plot analysis. PTPRZ1 enzymes were preincubated with NAZ2329 for 60 min, and the PTP activity was measured using DiFMUP. (F) Concentration-inhibition curves of NAZ2329 for representative PTP members, including human PTPRZ and PTPRG (another R5 RPTP subfamily member), human PTPRS (R2A subfamily), human PTPRM (R2B subfamily), mouse PTPRB (R3 subfamily), human PTPRA (R4 subfamily), human PTPN1 (non-transmembrane PTP, NT1 subfamily), and human PTPN6 (NT2 subfamily), were generated. Assays were performed using DiFMUP. IC50 values obtained are shown in the inset. Data represent the averages of two or three separate experiments. TEXT PRINTED IN THE PICTURE: (F) NAZ2329: IC50 (μM): hPTPRZ1 7.5; IC50 (μM): hPTPRG 4.8; IC50 (μM): hPTPRA 35.7; IC50 (μM): hPTPRM 56.7; IC50 (μM): hPTPRS 23.7; IC50 (μM): mPTPRB 35.4; IC50 (μM): hPTPN6 15.2; IC50 (μM): hPTPN1 14.5
Recombinant proteins corresponding to the entire intracellular regions (ICRs) of PTPRZ1, PTPRA, and PTPRM were expressed using a baculovirus-silkworm expression system, and purified as described. The ICRs of PTPRG, PTPRS, and PTPRB and the catalytic domains of PTPN1 and PTPN6 were expressed as glutathione-S-transferase (GST) fusion proteins from each pGEX plasmid in Escherichia coli strain BL21 (ref. [6]). GST fusion proteins were purified by glutathione affinity chromatography as described. Chondroitinase ABC (chABC) was purchased from Sigma-Aldrich (catalog #C3667). Anti-PTPRZ-S, rabbit polyclonal antibodies against the extracellular region of PTPRZ was described previously (ref. [44]). The following are the specificities and sources of the commercially available antibodies used in the present study: Anti-RPTPβ (a monoclonal antibody against the intracellular domain of PTPRZ1 receptors, #610179, BD Biosciences), anti-SOX2 (#ab97959, Abcam), anti-POU3F2 (#12137, Cell Signaling), anti-OLIG2 (#AB9610, Millipore), anti-SALL2 (#12679–1-AP, Proteintech Group), anti-GAPDH (#ab9482, Abcam) anti-phosphotyrosine (PY20; #ab16389, Abcam), and anti-pY118-paxillin (#2541, Cell Signaling), mouse anti-paxillin antibody (#610569, BD Bioscience), anti-MBP (#sc-13914, Santa Cruz Biotechnology), and anti-NG2 proteoglycan (#AB5320, Millipore). […]

[4] = system: C6 xenograft; test: C6 subcutaneous xenograft nude mouse model; format: in vivo; conditions: nude mice, i.p. twice per week; NAZ2329 45 µmol (22.5 mg)/kg, TMZ 50 mg/kg; vehicle 17 days
Procedure: Figure 10 Antitumor effects of NAZ2329 on the C6 mouse xenograft model. (A) Nude mice were subcutaneously implanted with C6 cells (5 × 10^6 cells), and tumor size was monitored until the criteria were met (>150 mm^3). At this time, mice were randomly divided into 4 treatment groups. DMSO as the vehicle control (n = 7), NAZ2329 (45 µmol (22.5 mg)/kg body weight, n = 9), temozolomide (TMZ, 50 mg/kg, n = 9), and the combination of NAZ2329 (45 µmol/kg) with TMZ (50 mg/kg) (n = 9) were administered intraperitoneally twice per week until the humane endpoint (>3,000 mm^3 tumor size or 40 days after the treatment). Tumor growth in each animal and the number of days required to reach a tumor volume of 3,000 mm^3 are shown in the graph. Five mice were sacrificed due to tumor necrosis (shown by gray symbols in the graph), and two mice unexpectedly died suddenly during the observation period (black symbols in the graph).
Parental or Ptprz-knockdown C6 cells (5 × 10^6 cells) suspended in a volume of 100 µl were subcutaneously injected into the left hind limbs of BALB/c-nu/nu mice (females, 4 weeks old mice were purchased from Japanese Charles River Co. Ltd.). Tumor growth was measured with calipers and calculated by the formula: volume = length × width × width × 0.5, as previously described. The drug treatment initiated when the tumor size reached 150 mm^3. […]

[5] = molecular target: T2, hPTPRZ1 (D1) (Homo sapiens, UniProt P23471); test: In vitro PTPase assay (DiFMUP), PTPRZ1 D1 domain; format: biochemical; conditions: first PTP domain fragment
T2 construct: human PTPRZ1-D1 (amino acid residues, 1,698-2,000)
T2 sequence (P23471 1698-2000 limits assumed): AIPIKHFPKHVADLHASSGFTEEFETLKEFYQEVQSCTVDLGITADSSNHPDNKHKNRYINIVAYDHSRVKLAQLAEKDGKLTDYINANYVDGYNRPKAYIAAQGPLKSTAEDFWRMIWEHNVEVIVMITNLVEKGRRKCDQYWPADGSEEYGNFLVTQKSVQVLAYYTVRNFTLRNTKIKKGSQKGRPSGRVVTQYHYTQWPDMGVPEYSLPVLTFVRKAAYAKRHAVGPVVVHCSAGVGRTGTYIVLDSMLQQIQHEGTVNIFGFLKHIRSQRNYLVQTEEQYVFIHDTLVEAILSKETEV

O=S(=O)([O-])c1ccc2c(N=Nc3ccc(S(=O)(=O)[O-])c4ccccc34)c(O)c(S(=O)(=O)[O-])cc2c1.[Na+].[Na+].[Na+] [SCB4380]
change in sensitivity on V-to-F substitution in PTPRZ and PTPRG [1]: ~ 5%
cell permeability [2]: cell impermeable

Cn1nnc2c(C(N)=O)ncn2c1=O [temozolomide, reference compound]
inhibitory effects on PTPRZ activity ([3]; Supplementary Fig. S2): no significant inhibitory effects
IC50 hPTPRZ1 (D1+D2) ([3]; whole intracellular region, DiFMUP, 60-min preincubation): ns
median day for the tumor size to reach 3,000 mm^3 [4]: 25 days
IC50 hPTPRZ1 (D1) [5]: ns

[O]=[V]([O-])([O-])[O-] [vanadate]
change in sensitivity on V-to-F substitution in PTPRZ and PTPRG [1]: ~ 5%
